# Experimental data taken from patent publication US20050208496A1, “Methods of testing for bronchial asthma or chronic obstructive pulmonary disease” (Genox Research, Inc., priority 2002, published 2005).
# Read-outs that look alike come from different tables or passages of the source.
# Tested on: respiratory epithelial cells
substance,measurement,setting,value
"IL-13: human IL-13 (Peprotech, Inc.) added to the medium at 50 ng/mL to stimulate respiratory epithelial cells","pendrin gene expression level, factor of increase in response to IL-13 stimulation","AI method, day 3 and day 7, both Lots 1 and 2",ten or more
same,AKR1C1 (32805_at) expression change upon IL-13 stimulation,"HG-U95A, lot 1, Day 3, AI",−2.7
same,ALDH3B2 (37956_at) expression change upon IL-13 stimulation,"HG-U95A, lot 1, Day 3, AI",−7.4
same,AP1G1 (35275_at) expression change upon IL-13 stimulation,"HG-U95A, lot 1, Day 3, AI",−3.6
same,CA12 (36454_at) expression change upon IL-13 stimulation,"HG-U95A, lot 1, Day 3, AI",−4
same,CHL1 (34193_at) expression change upon IL-13 stimulation,"HG-U95A, lot 1, Day 3, AI",−2.5
same,CMAH (39317_at) expression change upon IL-13 stimulation,"HG-U95A, lot 1, Day 3, AI",−2.2
same,E48 (36284_at) expression change upon IL-13 stimulation,"HG-U95A, lot 1, Day 3, AI",−10.3
same,EPHX1 (38790_at) expression change upon IL-13 stimulation,"HG-U95A, lot 1, Day 3, AI",−3
same,FMO2.3 (34935_at) expression change upon IL-13 stimulation,"HG-U95A, lot 1, Day 3, AI",−2.2
same,GLUL (40522_at) expression change upon IL-13 stimulation,"HG-U95A, lot 1, Day 3, AI",−3.8
same,GSTA4 (40508_at) expression change upon IL-13 stimulation,"HG-U95A, lot 1, Day 3, AI",−8
same,"HGNC, keratinocyte transglutaminase gene (35947_at) expression change upon IL-13 stimulation","HG-U95A, lot 1, Day 3, AI",−2
same,KIAA0843 (39597_at) expression change upon IL-13 stimulation,"HG-U95A, lot 1, Day 3, AI",−2.2
same,LGALS1 (33412_at) expression change upon IL-13 stimulation,"HG-U95A, lot 1, Day 3, AI",−2
same,PYGL (37215_at) expression change upon IL-13 stimulation,"HG-U95A, lot 1, Day 3, AI",−2.2
same,SCYD1 (823_at) expression change upon IL-13 stimulation,"HG-U95A, lot 1, Day 3, AI",−2.2
same,SDC1 (38127_at) expression change upon IL-13 stimulation,"HG-U95A, lot 1, Day 3, AI",−2.2
same,TGFBI (1385_at) expression change upon IL-13 stimulation,"HG-U95A, lot 1, Day 3, AI",−3.8
same,ADH1A (34637_f_at) expression change upon IL-13 stimulation,"HG-U95A, lot 1, Day 3, IMM",−3
same,AP1G1 (35275_at) expression change upon IL-13 stimulation,"HG-U95A, lot 1, Day 3, IMM",−2.8
same,CA12 (36454_at) expression change upon IL-13 stimulation,"HG-U95A, lot 1, Day 3, IMM",−3.5
same,CLDN10 (39579_at) expression change upon IL-13 stimulation,"HG-U95A, lot 1, Day 3, IMM",−2.3
same,GLUL (40522_at) expression change upon IL-13 stimulation,"HG-U95A, lot 1, Day 3, IMM",−2.9
same,GPX3 (770_at) expression change upon IL-13 stimulation,"HG-U95A, lot 1, Day 3, IMM",−3.2
same,KIAA0843 (39597_at) expression change upon IL-13 stimulation,"HG-U95A, lot 1, Day 3, IMM",−2.3
same,TGFBI (1385_at) expression change upon IL-13 stimulation,"HG-U95A, lot 1, Day 3, IMM",−2.2
same,ADH1A (34637_f_at) expression change upon IL-13 stimulation,"HG-U95A, lot 1, Day 7, AI",−6.1
same,ADH1C (36247_f_at) expression change upon IL-13 stimulation,"HG-U95A, lot 1, Day 7, AI",−4.1
same,AKR1C1 (32805_at) expression change upon IL-13 stimulation,"HG-U95A, lot 1, Day 7, AI",−3.2
same,ALDH3B2 (37956_at) expression change upon IL-13 stimulation,"HG-U95A, lot 1, Day 7, AI",−6.8
same,AP1G1 (35275_at) expression change upon IL-13 stimulation,"HG-U95A, lot 1, Day 7, AI",−3.9
same,ATP10B (37415_at) expression change upon IL-13 stimulation,"HG-U95A, lot 1, Day 7, AI",−3.2
same,BLMH (37700_at) expression change upon IL-13 stimulation,"HG-U95A, lot 1, Day 7, AI",−2.1
same,CA12 (36454_at) expression change upon IL-13 stimulation,"HG-U95A, lot 1, Day 7, AI",−6.3
same,CLDN10 (39579_at) expression change upon IL-13 stimulation,"HG-U95A, lot 1, Day 7, AI",−4.6
same,CMAH (39317_at) expression change upon IL-13 stimulation,"HG-U95A, lot 1, Day 7, AI",−4.4
same,CP (39008_at) expression change upon IL-13 stimulation,"HG-U95A, lot 1, Day 7, AI",−3.6
same,CRYM (38285_at) expression change upon IL-13 stimulation,"HG-U95A, lot 1, Day 7, AI",−4.2
same,CSPG2 (38112_g_at) expression change upon IL-13 stimulation,"HG-U95A, lot 1, Day 7, AI",−2.1
same,DHCR24 (36658_at) expression change upon IL-13 stimulation,"HG-U95A, lot 1, Day 7, AI",−2.3
same,DSG3 (33693_at) expression change upon IL-13 stimulation,"HG-U95A, lot 1, Day 7, AI",−3.6
same,E48 (36284_at) expression change upon IL-13 stimulation,"HG-U95A, lot 1, Day 7, AI",−7.2
same,EPHX1 (38790_at) expression change upon IL-13 stimulation,"HG-U95A, lot 1, Day 7, AI",−3
same,FACL2 (40082_at) expression change upon IL-13 stimulation,"HG-U95A, lot 1, Day 7, AI",−2.7
same,FMO3 (40665_at) expression change upon IL-13 stimulation,"HG-U95A, lot 1, Day 7, AI",−2.1
same,GLUL (40522_at) expression change upon IL-13 stimulation,"HG-U95A, lot 1, Day 7, AI",−3
same,GPX3 (770_at) expression change upon IL-13 stimulation,"HG-U95A, lot 1, Day 7, AI",−6.5
same,GSTA4 (40508_at) expression change upon IL-13 stimulation,"HG-U95A, lot 1, Day 7, AI",−3.8
same,"HGNC, keratinocyte transglutaminase gene (35947_at) expression change upon IL-13 stimulation","HG-U95A, lot 1, Day 7, AI",−3.2
same,KIAA0843 (39597_at) expression change upon IL-13 stimulation,"HG-U95A, lot 1, Day 7, AI",−2.6
same,KIAA0878 (32215_1_at) expression change upon IL-13 stimulation,"HG-U95A, lot 1, Day 7, AI",−3.4
same,KIAA1055 (39400_at) expression change upon IL-13 stimulation,"HG-U95A, lot 1, Day 7, AI",−5.3
same,LCE (40943_at) expression change upon IL-13 stimulation,"HG-U95A, lot 1, Day 7, AI",−2
same,LGALS1 (33412_at) expression change upon IL-13 stimulation,"HG-U95A, lot 1, Day 7, AI",−6.8
same,PYGL (37215_at) expression change upon IL-13 stimulation,"HG-U95A, lot 1, Day 7, AI",−3.2
same,SCYD1 (823_at) expression change upon IL-13 stimulation,"HG-U95A, lot 1, Day 7, AI",−8.5
same,TGFBI (1385_at) expression change upon IL-13 stimulation,"HG-U95A, lot 1, Day 7, AI",−5.3
same,TNFAIP2 (38631_at) expression change upon IL-13 stimulation,"HG-U95A, lot 1, Day 7, AI",−4.4
same,AKR1C1 (32805_at) expression change upon IL-13 stimulation,"HG-U95A, lot 1, Day 7, IMM",−3.1
same,AP1G1 (35275_at) expression change upon IL-13 stimulation,"HG-U95A, lot 1, Day 7, IMM",−3.7
same,CA12 (36454_at) expression change upon IL-13 stimulation,"HG-U95A, lot 1, Day 7, IMM",−4
same,CHL1 (34193_at) expression change upon IL-13 stimulation,"HG-U95A, lot 1, Day 7, IMM",2.1
same,CP (39008_at) expression change upon IL-13 stimulation,"HG-U95A, lot 1, Day 7, IMM",−2.6
same,FMO2.3 (34935_at) expression change upon IL-13 stimulation,"HG-U95A, lot 1, Day 7, IMM",−2.4
same,GPX3 (770_at) expression change upon IL-13 stimulation,"HG-U95A, lot 1, Day 7, IMM",−6
same,"HGNC, keratinocyte transglutaminase gene (35947_at) expression change upon IL-13 stimulation","HG-U95A, lot 1, Day 7, IMM",−3.7
same,KIAA0878 (32215_1_at) expression change upon IL-13 stimulation,"HG-U95A, lot 1, Day 7, IMM",−2.3
same,PYGL (37215_at) expression change upon IL-13 stimulation,"HG-U95A, lot 1, Day 7, IMM",−2.7
same,TGFBI (1385_at) expression change upon IL-13 stimulation,"HG-U95A, lot 1, Day 7, IMM",−3
same,ADH1C (36247_f_at) expression change upon IL-13 stimulation,"HG-U95A, lot 2, Day 3, AI",−6.1
same,AKR1C1 (32805_at) expression change upon IL-13 stimulation,"HG-U95A, lot 2, Day 3, AI",−2.4
same,ALDH3B2 (37956_at) expression change upon IL-13 stimulation,"HG-U95A, lot 2, Day 3, AI",−6.9
same,AP1G1 (35275_at) expression change upon IL-13 stimulation,"HG-U95A, lot 2, Day 3, AI",−2.8
same,CA12 (36454_at) expression change upon IL-13 stimulation,"HG-U95A, lot 2, Day 3, AI",−6.5
same,CHL1 (34193_at) expression change upon IL-13 stimulation,"HG-U95A, lot 2, Day 3, AI",−4.3
same,CLDN10 (39579_at) expression change upon IL-13 stimulation,"HG-U95A, lot 2, Day 3, AI",−5.4
same,CMAH (39317_at) expression change upon IL-13 stimulation,"HG-U95A, lot 2, Day 3, AI",−7.4
same,CP (39008_at) expression change upon IL-13 stimulation,"HG-U95A, lot 2, Day 3, AI",−3.9
same,DHCR24 (36658_at) expression change upon IL-13 stimulation,"HG-U95A, lot 2, Day 3, AI",−2.1
same,E48 (36284_at) expression change upon IL-13 stimulation,"HG-U95A, lot 2, Day 3, AI",−3.8
same,EPHX1 (38790_at) expression change upon IL-13 stimulation,"HG-U95A, lot 2, Day 3, AI",−3
same,FMO2.3 (34935_at) expression change upon IL-13 stimulation,"HG-U95A, lot 2, Day 3, AI",−3.7
same,FMO3 (40665_at) expression change upon IL-13 stimulation,"HG-U95A, lot 2, Day 3, AI",−2.3
same,GLUL (40522_at) expression change upon IL-13 stimulation,"HG-U95A, lot 2, Day 3, AI",−3.5
same,GPX3 (770_at) expression change upon IL-13 stimulation,"HG-U95A, lot 2, Day 3, AI",−12.2
same,GSTA4 (40508_at) expression change upon IL-13 stimulation,"HG-U95A, lot 2, Day 3, AI",−2.8
same,"HGNC, keratinocyte transglutaminase gene (35947_at) expression change upon IL-13 stimulation","HG-U95A, lot 2, Day 3, AI",−2.7
same,KIAA0843 (39597_at) expression change upon IL-13 stimulation,"HG-U95A, lot 2, Day 3, AI",−2.1
same,KIAA0878 (32215_1_at) expression change upon IL-13 stimulation,"HG-U95A, lot 2, Day 3, AI",−2.4
same,LGALS1 (33412_at) expression change upon IL-13 stimulation,"HG-U95A, lot 2, Day 3, AI",−2.6
same,PYGL (37215_at) expression change upon IL-13 stimulation,"HG-U95A, lot 2, Day 3, AI",−2.2
same,SCYD1 (823_at) expression change upon IL-13 stimulation,"HG-U95A, lot 2, Day 3, AI",−2.1
same,TGFBI (1385_at) expression change upon IL-13 stimulation,"HG-U95A, lot 2, Day 3, AI",−3.1
same,TNFAIP2 (38631_at) expression change upon IL-13 stimulation,"HG-U95A, lot 2, Day 3, AI",−2.4
same,ADH1A (34637_f_at) expression change upon IL-13 stimulation,"HG-U95A, lot 2, Day 7, AI",−20.5
same,ADH1C (36247_f_at) expression change upon IL-13 stimulation,"HG-U95A, lot 2, Day 7, AI",−14.2
same,ALDH3B2 (37956_at) expression change upon IL-13 stimulation,"HG-U95A, lot 2, Day 7, AI",−27.6
same,AP1G1 (35275_at) expression change upon IL-13 stimulation,"HG-U95A, lot 2, Day 7, AI",−2.6
same,ATP10B (37415_at) expression change upon IL-13 stimulation,"HG-U95A, lot 2, Day 7, AI",−3
same,BLMH (37700_at) expression change upon IL-13 stimulation,"HG-U95A, lot 2, Day 7, AI",−2.5
same,CA12 (36454_at) expression change upon IL-13 stimulation,"HG-U95A, lot 2, Day 7, AI",−3
same,CHL1 (34193_at) expression change upon IL-13 stimulation,"HG-U95A, lot 2, Day 7, AI",−7.3
same,CLDN10 (39579_at) expression change upon IL-13 stimulation,"HG-U95A, lot 2, Day 7, AI",−5.4
same,CMAH (39317_at) expression change upon IL-13 stimulation,"HG-U95A, lot 2, Day 7, AI",−14.4
same,CP (39008_at) expression change upon IL-13 stimulation,"HG-U95A, lot 2, Day 7, AI",−6.2
